# Results from US20110015410A1, “NOVEL USE OF SCOPARONE” (Kyungpook National University Industry Academic Cooperation …, priority 2007, published 2011).
# What was measured:
# [1] = test system: vascular smooth muscle cells; assay: Proliferation of vascular smooth muscle cells on treatment with the AMPK inhibitor CompC; assay type: cell-based, Sprague-Dawley white rats; conditions: cells treated with CompC, described as an AMPK inhibitor
# [2] = test system: vascular smooth muscle cells; assay: Inhibition of proliferation of vascular smooth muscle cells (WST cell counting); assay type: cell-based, Sprague-Dawley white rats; conditions: scoparone 0, 5, 10, 20 or 50 μM, 48 hours, absorbance at 450 nm
# Protocol: Vascular smooth muscle cells were isolated from the thoracic aorta of Sprague-Dawley white rats and cultured in a medium containing 20% fetal bovine serum.
# The specificity of vascular smooth muscle cells was confirmed by staining the cells with α-actin monoclonal antibody (Sigma, St Louis, Mo., USA). In this experiment, vascular smooth muscle cells subcultured 5-6 times were used. The cultured vascular smooth muscle cells were plated in a 60-mm tissue culture dish at a confluence of about 80-90%, and then cultured in 0.5% FBS DMEM medium for 24 hours to allow the cells to enter the stationary phase.
# The primarily cultured vascular smooth muscle cells were cultured in a 96-well culture dish, and when the cells reached a confluence of 40%, the medium was replaced with 0.5% FBS-containing medium, and the cells were cultured for 24 hours to allow the cells to enter the stationary phase.
# [3] = test system: neointima formation in carotid artery; assay: Formation of neointima after balloon dilatation (carotid artery, H&E staining); assay type: in vivo, Sprague-Dawley white rats; conditions: high-fat diet containing 10 mg/kg or 100 mg/kg of scoparone; 2 weeks after balloon dilatation; vs negative control group
# Protocol: In order to examine whether scoparone inhibits the formation of neointima after balloon dilatation, an experiment was performed using Sprague-Dawley white rats fed with scoparone-containing feed.
# As test subjects, male Sprague-Dawley white rats weighing about 300 g were used. The rats were grouped into a normal control group, a negative control group fed only with a high-fat diet (20% fat and 0.05% cholesterol) and a test group fed with a high-fat diet containing 10 mg/kg or 100 mg/kg of scoparone, each group consisting of 4 animals, and were kept at 22° C. under a 12-hr light/12-hr dark cycle. The negative control group and the test group were fed with the above-described diets from 3 days before performing balloon dilatation and were fed with the diets during 2 weeks after balloon dilatation. After 2 weeks, the carotid artery was isolated from the rats and stained with H&E (hematoxylin & eosin) in order to observe the formation of neointima. FIG. 2 is a micrograph (×100) showing the cross-section of the carotid artery of the rats 2 weeks after balloon dilatation.
# AMPK = assay: Phosphorylation of AMPK in vascular smooth muscle cells (Western blot); assay type: cell-based, Sprague-Dawley white rats; conditions: 50 μg of scoparone for 1, 2, 4, 6 and 12 hr
# Protocol: (§1) Cultured vascular smooth muscle cells were plated in a 60-mm tissue culture dish at a confluence of about 80-90%, and then cultured in 0.5% FBS-containing medium for 24 hours to allow the cells to enter the stationary phase. The cultured cells were divided into a control group not treated with scoparone, and five test groups which were treated with 50 μg of scoparone for 1 hr, 2 hr, 4 hr, 6 hr and 12 hr, respectively. From each of the groups, the total protein was isolated using RIPA buffer. Each of the isolated total proteins was boiled in buffer for 5 minutes, and then cooled on ice. Then, each total protein was separated according to size by electrophoresis on sodium dodecyl sulfate polyacrylamide. Then, each total protein was transferred to a PVDF membrane which was then allowed to react with monoclonal antibodies for pACC, pAMPK and AMPK to examine the expression and phosphorylation of the proteins.
# ACC = assay: Phosphorylation of ACC in vascular smooth muscle cells (Western blot); assay type: cell-based, Sprague-Dawley white rats; conditions: 50 μg of scoparone for 1, 2, 4, 6 and 12 hr
# Protocol: as §1
# p53 = assay: Expression of p53 in vascular smooth muscle cells (Western blot); assay type: cell-based, Sprague-Dawley white rats
# Protocol: (§2) Cultured vascular muscle cells were plated in a 60-mm tissue culture dish at a confluence of about 80-90%, and then cultured in 0.5% FBS containing medium for 24 hours to allow the cells to enter the stationary phase. The cultured cells were divided into a control group not treated with scoparone, and five test groups which were treated with 50 μg of scoparone for 2 hr, 4 hr, 6 hr, 12 hr and 24 hr, respectively. From each of the groups, the total protein was isolated using RIPA buffer. Each of the isolated total proteins was boiled in buffer for 5 minutes, and then cooled on ice. Then, each total protein was separated according to size by electrophoresis on sodium dodecyl sulfate polyacrylamide gel. Then, each total protein was transferred to a PVDF membrane which was then allowed to react with antibodies for p53, p27, p21 and Cyclin D to examine the expression of the proteins.
# p27 = assay: Expression of p27 in vascular smooth muscle cells (Western blot); assay type: cell-based, Sprague-Dawley white rats
# Protocol: as §2
# p21 = assay: Expression of p21 in vascular smooth muscle cells (Western blot); assay type: cell-based, Sprague-Dawley white rats
# Protocol: as §2
# cyclin D = assay: Expression of cyclin D in vascular smooth muscle cells (Western blot); assay type: cell-based, Sprague-Dawley white rats; conditions: 50 μg of scoparone for 2, 4, 6, 12 and 24 hr
# Protocol: as §2
# JNK = assay: Phosphorylation of JNK in vascular smooth muscle cells (Western blot); assay type: cell-based, Sprague-Dawley white rats; conditions: 50 μg of scoparone for 15, 30, 45, 60 and 90 min
# Protocol: (§3) In order to examine the signaling pathway of scoparone, the phosphorylation of JNK and Erk was examined.
# (§4) Cultured vascular smooth muscle cells were plated in a 60-mm tissue culture dish at a confluence of 80-90%, and then cultured in 0.5% FBS-containing medium for 24 hours to allow the cells to enter the stationary phase. The cultured cells were divided into a control group not treated with scoparone, and five test groups which were treated with 50 μg of scoparone for 15 min, 30 min, 45 min, 60 min and 90 min, respectively. From each of the groups, the total protein was isolated using RIPA buffer. Each of the isolated total proteins was boiled in buffer for 5 minutes, and then cooled on ice. Then, each total protein was separated according to size by electrophoresis on sodium dodecyl sulfate polyacrylamide gel. Then, each total protein was transferred to a PVDF membrane which was then allowed to react with antibodies for pJNK, JNK, pErk and Erk to examine the expression and phosphorylation of the proteins.
# Erk = assay: Phosphorylation of Erk in vascular smooth muscle cells (Western blot); assay type: cell-based, Sprague-Dawley white rats; conditions: 50 μg of scoparone for 15, 30, 45, 60 and 90 min
# Protocol: as §3, §4
# ROS = ROS production in vascular smooth muscle cells (DCF-DA fluorescence microscopy); assay type: cell-based, Sprague-Dawley white rats; conditions: TNF-α-containing media, scoparone 100 μM and 200 μM, 1 hour
# Protocol: When vascular smooth muscle cells were grown to a confluence of about 90% in a 6-well cell culture dish, the cells were cultured in 0.5% FBS DMEM medium for 24 hours. The cultured cells were divided into a control group treated with neither tumor necrosis factor (TNF-α nor scoparone, and three test groups which were treated with scoparone in tumor necrosis factor (TNF-α)-containing media at scoparone concentrations of 0 μM, 100 μM and 200 μM, respectively. The cells of each group were incubated for 1 hour, and then 40 μmol/L of 2′,7′-dichlorofluorecin diacetate (DCF-DA; Invitrogen), a fluorescent probe sensitive to ROS, was added thereto, and the cells were incubated for 30 minutes. The production of ROS in the cells was analyzed using an AxioCam MRc5 Carl Zeiss fluorescence microscope (Thornwood, N.Y.) which was excited at a 488-nm wavelength and emitted at 515-nm wavelength.
# VCAM-1 = assay: Expression of VCAM-1 in vascular smooth muscle cells (Western blot); assay type: cell-based, Sprague-Dawley white rats; conditions: TNF-α-containing media; scoparone 0, 10, 20, 50 and 100 μM; 24 hours
# Protocol: Cultured vascular smooth muscle cells were plated in a 60-mm tissue culture dish at a confluence of about 80-90%, and then cultured in 0.5% FBS-containing medium for 24 hours to allow the cells to enter the stationary phase. The cultured cells were divided into a control group treated with neither scoparone nor tumor necrosis factor (TNF-α, and five test groups which were treated with scoparone in tumor necrosis factor (TNF-α)-containing media for 24 hours at scoparone concentrations of 0 μM, 10 μM, 20 μM, 50 μM and 100 μM, respectively. In addition, the cells were divided into five groups which were treated with 50 μg of scoparone for 15 min, 30 min, 45 min, 60 min and 90 min, respectively. From each of the groups, the total protein was isolated using RIPA buffer. Each of the isolated total protein was boiled in buffer for 5 minutes, and then cooled on ice. Then, each total protein was separated according to size by electrophoresis on sodium dodecyl sulfate polyacrylamide gel. Then, each total protein was transferred to a PVDF membrane which was then allowed to react with antibodies for VCAM and PAI-1 to examine the expression of the proteins. The membrane was further allowed to react with anti-actin antibody to examine whether the antibody uses a given amount of the proteins.
# AP-1 = assay: DNA-binding activity of AP-1 (electrophoretic mobility shift assay); assay type: cell-based, Sprague-Dawley white rats; conditions: 10 ng TNF-α; scoparone 0, 10, 20, 50 and 100 μM; 24 hours; EMSA
# Protocol: (§5) Proteins such as cell cycle regulatory proteins or chemokine are regulated by the respective transcription factors. Accordingly, the DNA-binding activities of AP-1 that is a transcription factor regulating the expression of cell cycle regulatory proteins, and NF-κB that is a transcription factor regulating the expression of chemokine were analyzed using an electrophoretic mobility shift assay (EMSA).
# (§6) Vascular smooth muscle cells were cultured in 0.5% FBS-containing medium for 24 hours. The cultured cells were divided into a control group treated with neither scoparone nor tumor necrosis factor (TNF-α, and five test groups which were treated with media containing 10 ng of tumor necrosis factor (TNF-α) for 24 hours at scoparone concentrations of 0 μM, 10 μM, 20 μM, 50 μM and 100 μM, respectively. Nuclear extracts were isolated from the vascular smooth muscle cells and labeled with radioisotope-labeled probes for AP-1 and NF-κB. Then, the labeled extracts were subjected to a protein-DNA reaction at room temperature for 20 minutes. After completion of the reaction, each sample was loaded on a 4% native polyarylamide gel and electrophoresed at 150 volt for 2 hours, followed by analysis.
# NF-κB = assay: DNA-binding activity of NF-κB (electrophoretic mobility shift assay); assay type: cell-based, Sprague-Dawley white rats; conditions: 10 ng TNF-α; scoparone 0, 10, 20, 50 and 100 μM; 24 hours; EMSA
# Protocol: as §5, §6
# [4] = test system: human peripheral monocytes; conditions: cited from earlier work
# [5] = high-cholesterol rabbit model; cited from earlier work
# [6] = 50 μg of scoparone for 2, 4, 6, 12 and 24 hr
smiles,measurement,setting,value
c1cc(-c2cnn3cc(-c4ccc(OCCN5CCCCC5)cc4)cnc23)ccn1 [CompC],proliferation of the vascular smooth muscle cells,[1],restored again
"COc1cc2ccc(=O)oc2cc1OC [scoparone, 6,7-dimethoxycoumarin]",proliferation of the vascular smooth muscle cells,[2]; with 10 ng/ml TNF-α,decreased in a dose-dependent manner
same,proliferation of the vascular smooth muscle cells,[2]; with 20 ng/ml PDGF,decreased in a dose-dependent manner
same,formation of neointima,[3],decreased compared to that in the negative control group
same,phosphorylation of AMPK,AMPK,time-dependently increased
same,phosphorylation of ACC,ACC,time-dependently increased
same,time of highest expression level of p53 after treatment,p53; 50 μg of scoparone,2 to 4 h
same,expression of p53,p53; [6],time-dependently increased
same,time of highest expression level of p27 after treatment,p27; 50 μg of scoparone,24 h
same,expression of p27,p27; [6],time-dependently increased
same,time of highest expression level of p21 after treatment,p21; 50 μg of scoparone,24 h
same,expression of p21,p21; [6],time-dependently increased
same,expression level of cyclin D,cyclin D,decreased
same,phosphorylation of JNK,JNK,gradually increased with the passage of time
same,time of highest phosphorylation of Erk after treatment,Erk,45 min
same,expression of ROS,ROS,decreased
same,expression of VCAM-1,VCAM-1,dose-dependently decreased
same,DNA binding activity of AP-1,AP-1,concentration-dependently decreased
same,DNA binding activity of NF-κB,NF-κB,concentration-dependently decreased
same,growth of human peripheral monocytes,[4],inhibits
same,cholesterol levels,[5],lowered
same,triglyceride levels,[5],lowered
